Results reported in patent publication US10167299B2, “1-(3-aminopropyl) substituted cyclic amine compounds, preparation method therefor, and pharmaceutical compositions and uses thereof” (SHANGHAI INSTITUTE OF MATERIA MEDICA, CHINESE ACADEMY OF …, priority 2013, dated 2019).
In brackets after ≈: the same amount, converted by molar mass.

How the values were obtained:
CCR5 = CCR5 (Homo sapiens (Human), UniProt P51681); assay: Calcium flux inhibition experiment; format: cell-based; details: for IC50: HEK293/CCR5-Gα16 cell line, calcium flux, read-out: CCR5 IC50; for calcium influx inhibition effect in words, versus positive control compounds: conclusion from Table 1
CCR5 protein = assay: Thermal stability of protein test (CPM-assay); format: binding; details: for Tm (° C.): thermal stability of CCR5 protein with compound, CPM dye
From the text: Experimental theory: many cysteines are present in CCR5 protein sequence. Cysteines located in loop region form disulfide bonds to stabilize the tertiary structure of the protein. Some free cysteines in reduced state are located in the transmembrane region. Under excitation by incident light of 387 nm, the combination of free sulfhydryl and fluorescent dye CPM can emit excitation light of 436 nm. […] The free sulfhydryls originally located in the transmembrane region expose and combine with the fluorescent dye. And then the detector will detect changes in signal enhancement. Therefore, the thermal stability of membrane proteins can be determined according to the temperature (Tm) at the midpoint of changes in signal intensity.
Experimental steps: Upon preliminary purification, the obtained protein solution was transferred into a small concentration tube (100 kd, 500 ul) for concentration (1000 rcf, 12 min, 4° C.). After centrifugation, the concentration tube was taken out and flicked to prevent protein coagulation due to high local concentration. The final concentrated volume was about 50 μl. 117 μl of purified solution (volume is suitable to make the total volume up to 120 μl), 1 μl fluorescent dye cpm (in-house prepared) and 2 μl of concentrated protein solution (the amount of added protein is 3-5 μg according to the calculated concentration of the protein solution and the concentrated volume) were added to 2 ml Ependorf tube and incubated at room temperature for 20 min. And then the mixture was added to the cuvette (Qwan) and put in the testing equipment Cary, wherein the surface of the frosted glass faced out. The temperature was set in the range of 4-90° C. with 1° C. increase per minute and the program was run. Tm value can be obtained by processing the data and graph with a mapping software and can be used to compare the difference of protein thermal stability under different conditions.

TZM-bl cells = assay: Cytotoxicity (CC50) in TZM-bl cells; format: cell-based; details: TZM-bl cells (Table 3)
HIV-1SF162 virus strain [1] = assay: Inhibition activity on TZM-bl cells infected with HIV-1SF162
hERG = hERG (Homo sapiens (Human), UniProt Q12809)
Method: CHO-hERG cells which have been incubated overnight were added with sample buffer and incubated for 90 minutes at room temperature in darkness.
The sample buffer was removed and assay buffer was added.
The compound is added to the cell plate and incubated for 20 minutes in darkness.
Cell plate was placed into FDSS. The fluorescence signal was recorded every second for 10 seconds. Exciting buffer was added to the cells at the 10th second and the fluorescence signal was recorded every second for 180 seconds

[2] = Cytotoxicity (CC50) in TZM-bl cells; format: cell-based; details: human; TZM-bl cells (Table 3); read-out: CC50
HIV-1SF162 virus strain [3] = assay: Inhibition of viral replication in PBMC infected with HIV-1SF162; format: cell-based
Method: (§1) The virus was titrated according to the modified method of Johnson & Byington. Briefly, the HIV-1 stock solution was subject to four-fold dilution in a 96-well plate (ten gradients) sextuplicate for each gradient, while setting six control-wells. Into each well was added 100 μl (5×10^6/ml) PHA-stimulated PBMC cells and final volume per well was 200 μl. The cells were cultured at 37° C. with 5% CO2. […] On the seventh day, the infected supernatant was collected and lysed with 0.5% Triton X100. The p24 antigen was detected by ELISA and TCID50 of virus was calculated according to Reed & Muench method (50% Tissue culture infection dose).
(§2) The starting concentration was 1 μM, six dilutions were obtained, and each well contained 200 μl mixture. While wells not containing drugs were set as control. […] After homogeneously mixed, the mixture was immediately added to 48-well plate containing diluted drug and each well was added with 200 μl of mixture. MVC was used as positive control. The cells were cultured at 37° C. with 5% CO2 for seven days (drug with the same concentration was added on the third day). The supernatant was collected, lysed and inactivated with 0.5% Triton X-100. The inhibition effect of drug on HIV-1 replication was detected using p24 antigen capture ELISA method.

HIV-1KM018 virus strain = assay: Inhibition of viral replication in PBMC infected with HIV-1KM018; format: cell-based; details: Human immunodeficiency virus 1, PBMC
Method: as §1, §2

HIV-1Ba-L virus strain [4] = assay: Inhibition of viral replication in PBMC infected with HIV-1Ba-L; format: cell-based
Method: The virus was titrated according to the modified method of Johnson & Byington. Briefly, the HIV-1 stock solution was subject to four-fold dilution in a 96-well plate (ten gradients) sextuplicate for each gradient, while setting six control-wells. Into each well was added 100 μl (5×10^6/ml) PHA-stimulated PBMC cells and final volume per well was 200 μl. The cells were cultured at 37° C. with 5% CO2. On the third day, 100 μl of fresh RPMI-1640 complete medium was supplemented. On the seventh day, the infected supernatant was collected and lysed with 0.5% Triton X100. The p24 antigen was detected by ELISA and TCID50 of virus was calculated according to Reed & Muench method (50% Tissue culture infection dose).
The compound to be tested was subject to 5-fold dilution in 48-well plate with RPMI-1640 complete medium (containing 10% FBS). The starting concentration was 1 μM, six dilutions were obtained, and each well contained 200 μl mixture. While wells not containing drugs were set as control. Virus (MOI=0.01) was added to 5×10^6/ml of PBMC cells which have been stimulated by PHA for 72 h. After homogeneously mixed, the mixture was immediately added to 48-well plate containing diluted drug and each well was added with 200 μl of mixture. MVC was used as positive control. The cells were cultured at 37° C. with 5% CO2 for seven days (drug with the same concentration was added on the third day). The supernatant was collected, lysed and inactivated with 0.5% Triton X-100. The inhibition effect of drug on HIV-1 replication was detected using p24 antigen capture ELISA method.

[5] = Toxicity test of compounds on PBMC cells (MTT); format: cell-based; details: human; PBMC cells (Table 4)
Method: (§3) The compound to be tested was subject to 5-fold dilution in a 96-well microtiter plate with RPMI-1640 or DMEM complete medium (containing 10% FBS) (Six dilution) triplicate for each dilution and 100 μl for each well. While wells not containing drugs were set as control. Into each well was added 100 μl of 4×10^5/ml PM1, HOS-CD4-CCR5 cells or 100 μl of 5×10^6/ml PHA stimulated PBMC. The cells were cultured at 37° C. with 5% CO2 for three days (PBMC cells were cultured for seven days and 100 μl of fresh RPMI-1640 complete medium was supplemented on the third day). Cytotoxicity was tested with MTT assay. OD values were measured by ELx800 microplate reader. The detection wavelength was 570 nm, and the reference wavelength was 630 nm.

HIV-1Ba-L virus strain [6] = assay: Inhibition of viral replication in HOS-CD4-CCR5 cells infected with HIV-1Ba-L; format: cell-based
Method: (§4) On the day before the test, 1×10^5/ml of HOS-CD4-CCR5 cells were inoculated in 96-well plates with 100 μl for each well. The compound to be tested was subject to 5-fold dilution in 96-well microtiter plate with DMEM complete medium (containing 10% FBS). The starting concentration was 1 μM and six dilutions were obtained. Triplicate wells were set for each dilution and each well contained 100 μl mixture. While wells not containing drugs were set as control. The supernatant was removed and 100 μl of drug was added and incubated for 2 h. Then 100 μl of HIV-1SF162 and HIV-1Ba-L were added to dilute supernatant. The cells were infected for 1 h, free virus was washed out and drug with the same final concentration was added. MVC was used as positive control. The cells were cultured at 37° C. with 5% CO2 for three days. The supernatant was collected, lysed and inactivated with 0.5% Triton X-100. The inhibition effect of drug on HIV-1 replication was detected using p24 antigen capture ELISA method.

HIV-1SF162 virus strain [7] = assay: Inhibition of viral replication in HOS-CD4-CCR5 cells infected with HIV-1SF162; format: cell-based; details: Human immunodeficiency virus 1, HOS-CD4-CCR5
Method: as §4

[8] = Toxicity test of compounds on HOS-CD4-CCR5 cells (MTT); format: cell-based; details: human; HOS-CD4+-CCR5 cells (Table 7)
Method: as §3

CYP1A2 = CYP1A2 (Homo sapiens (Human), UniProt P05177); assay: CYP450 inhibition activity assay (Vivid kit) CYP1A2; format: in vitro ADME; details: CYP450 subtype (μM) 1A2 (IC50)
Method: (§5) VividR CYP450 Screening Kits can be used to evaluate the effects on CYP450 subtypes (CYP1A2, CYP2D6, CYP2C9, CYP2C19, CYP3A4-T and CYP3A4-M) and the substrate VividR in the kit can be metabolizd to a product which can emit strong fluorescence in an aqueous solution by specific CYP450 enzymes.
(§6) The compounds to be tested and positive compound were added to corresponding wells and DMSO was added to control wells.
(§7) CYP450 enzyme was added to the compounds to be tested, positive compound and DMSO control wells. The enzyme dilution was used to replace enzyme and added to DMSO wells as test background. The mixture was vibrated and mixed for 1 minute, and then incubated at room temperature for 20 minutes.
(§8) NADP^+ regeneration system and the substrate were added to initiate the reaction and incubated at room temperature for 60 minutes.

CYP2C9 = CYP2C9 (Homo sapiens (Human), UniProt P11712); assay: CYP450 inhibition activity assay (Vivid kit) CYP2C9; format: in vitro ADME; details: CYP450 subtype (μM) 2C9 (IC50)
Method: as §5, §6, §7, §8

CYP2C19 = CYP2C19 (Homo sapiens (Human), UniProt P33261); assay: CYP450 inhibition activity assay (Vivid kit) CYP2C19; format: in vitro ADME; details: CYP450 subtype (μM) 2C19 (IC50)
Method: as §5, §6, §7, §8

CYP2D6 = CYP2D6 (Homo sapiens (Human), UniProt P10635); assay: CYP450 inhibition activity assay (Vivid kit) CYP2D6; format: in vitro ADME; details: CYP450 subtype (μM) 2D6 (IC50)
Method: as §5, §6, §7, §8

[9] = marketed drug, literature value, species not stated; cited from earlier work
[10] = TZM-bl cells infected with HIV-1SF162
[11] = Human immunodeficiency virus 1, PBMC
[12] = Human immunodeficiency virus 1, TZM-bl

CCR5, sequence (P51681 whole entry): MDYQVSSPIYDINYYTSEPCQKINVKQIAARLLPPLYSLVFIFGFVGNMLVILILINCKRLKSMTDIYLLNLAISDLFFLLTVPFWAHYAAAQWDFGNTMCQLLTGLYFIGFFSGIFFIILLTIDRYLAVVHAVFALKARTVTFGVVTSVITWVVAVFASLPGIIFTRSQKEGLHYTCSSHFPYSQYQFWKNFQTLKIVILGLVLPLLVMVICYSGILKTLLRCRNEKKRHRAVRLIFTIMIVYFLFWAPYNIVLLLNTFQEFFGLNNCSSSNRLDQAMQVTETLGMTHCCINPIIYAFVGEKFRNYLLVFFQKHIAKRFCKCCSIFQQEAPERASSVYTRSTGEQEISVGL
hERG, sequence (Q12809 whole entry): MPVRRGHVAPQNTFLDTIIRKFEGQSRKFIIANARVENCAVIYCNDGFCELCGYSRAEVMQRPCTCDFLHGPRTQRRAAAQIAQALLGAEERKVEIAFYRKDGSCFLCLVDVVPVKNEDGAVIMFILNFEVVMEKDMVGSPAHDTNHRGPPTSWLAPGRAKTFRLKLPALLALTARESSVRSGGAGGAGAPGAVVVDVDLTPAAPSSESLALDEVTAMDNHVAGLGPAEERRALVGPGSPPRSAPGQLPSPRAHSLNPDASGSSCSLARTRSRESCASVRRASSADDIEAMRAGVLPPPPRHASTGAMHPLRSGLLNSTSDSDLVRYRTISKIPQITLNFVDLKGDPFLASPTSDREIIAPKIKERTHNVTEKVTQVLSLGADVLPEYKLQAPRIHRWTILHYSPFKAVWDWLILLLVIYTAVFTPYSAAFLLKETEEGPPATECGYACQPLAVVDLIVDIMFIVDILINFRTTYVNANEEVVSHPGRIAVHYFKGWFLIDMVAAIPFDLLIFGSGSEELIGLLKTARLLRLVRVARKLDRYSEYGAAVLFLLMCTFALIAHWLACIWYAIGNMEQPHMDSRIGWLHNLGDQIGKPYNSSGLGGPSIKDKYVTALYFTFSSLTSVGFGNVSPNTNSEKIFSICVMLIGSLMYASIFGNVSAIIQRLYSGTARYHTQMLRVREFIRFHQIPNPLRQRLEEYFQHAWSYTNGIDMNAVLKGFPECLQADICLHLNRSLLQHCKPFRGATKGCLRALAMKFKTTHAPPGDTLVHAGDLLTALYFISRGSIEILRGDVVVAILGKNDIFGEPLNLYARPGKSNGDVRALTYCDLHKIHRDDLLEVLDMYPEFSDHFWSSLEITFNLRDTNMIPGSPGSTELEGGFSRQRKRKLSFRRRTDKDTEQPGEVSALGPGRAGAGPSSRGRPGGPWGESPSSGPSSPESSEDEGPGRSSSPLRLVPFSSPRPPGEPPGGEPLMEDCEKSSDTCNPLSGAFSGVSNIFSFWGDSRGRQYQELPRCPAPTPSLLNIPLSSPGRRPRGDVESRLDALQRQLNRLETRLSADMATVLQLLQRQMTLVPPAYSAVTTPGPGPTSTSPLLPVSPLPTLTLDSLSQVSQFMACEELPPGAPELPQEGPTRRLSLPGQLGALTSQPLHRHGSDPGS
CYP2C9, sequence (P11712 whole entry): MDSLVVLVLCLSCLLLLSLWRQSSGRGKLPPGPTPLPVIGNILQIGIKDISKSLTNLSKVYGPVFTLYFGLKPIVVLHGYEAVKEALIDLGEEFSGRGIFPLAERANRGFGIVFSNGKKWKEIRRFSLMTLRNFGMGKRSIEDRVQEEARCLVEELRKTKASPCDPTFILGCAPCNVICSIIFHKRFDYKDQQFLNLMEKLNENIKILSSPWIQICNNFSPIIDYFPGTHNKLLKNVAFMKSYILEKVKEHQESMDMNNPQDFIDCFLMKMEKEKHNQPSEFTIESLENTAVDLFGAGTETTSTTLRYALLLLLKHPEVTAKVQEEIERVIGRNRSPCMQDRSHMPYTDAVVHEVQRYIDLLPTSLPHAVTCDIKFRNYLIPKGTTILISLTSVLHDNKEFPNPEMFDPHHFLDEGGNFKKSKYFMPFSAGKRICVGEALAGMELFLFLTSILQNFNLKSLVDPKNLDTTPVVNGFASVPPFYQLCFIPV
CYP2C19, sequence (P33261 whole entry): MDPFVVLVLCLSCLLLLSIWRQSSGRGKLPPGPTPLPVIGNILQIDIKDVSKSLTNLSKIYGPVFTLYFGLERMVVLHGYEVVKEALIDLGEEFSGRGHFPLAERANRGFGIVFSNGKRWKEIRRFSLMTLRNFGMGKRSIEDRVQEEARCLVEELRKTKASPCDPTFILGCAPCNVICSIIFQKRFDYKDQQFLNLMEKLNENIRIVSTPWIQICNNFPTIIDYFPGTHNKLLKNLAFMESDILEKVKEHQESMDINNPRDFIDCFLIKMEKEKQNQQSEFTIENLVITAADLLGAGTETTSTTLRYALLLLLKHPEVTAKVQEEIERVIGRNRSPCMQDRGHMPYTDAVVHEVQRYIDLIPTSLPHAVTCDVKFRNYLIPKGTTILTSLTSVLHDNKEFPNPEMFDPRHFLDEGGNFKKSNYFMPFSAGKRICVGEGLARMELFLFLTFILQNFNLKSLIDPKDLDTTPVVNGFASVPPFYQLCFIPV
CYP2D6, sequence (P10635 whole entry): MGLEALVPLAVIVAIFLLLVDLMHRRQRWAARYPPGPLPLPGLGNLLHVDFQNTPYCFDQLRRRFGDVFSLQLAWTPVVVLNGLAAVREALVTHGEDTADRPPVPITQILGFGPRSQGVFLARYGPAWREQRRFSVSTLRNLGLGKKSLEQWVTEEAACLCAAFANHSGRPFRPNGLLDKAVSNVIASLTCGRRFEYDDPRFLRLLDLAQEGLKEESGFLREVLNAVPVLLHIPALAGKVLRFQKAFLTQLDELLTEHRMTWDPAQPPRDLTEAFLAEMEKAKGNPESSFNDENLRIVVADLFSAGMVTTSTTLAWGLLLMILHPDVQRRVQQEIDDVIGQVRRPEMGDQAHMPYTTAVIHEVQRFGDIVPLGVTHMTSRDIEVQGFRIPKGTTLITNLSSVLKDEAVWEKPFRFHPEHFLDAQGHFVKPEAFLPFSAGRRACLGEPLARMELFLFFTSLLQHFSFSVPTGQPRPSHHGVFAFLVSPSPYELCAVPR
CYP1A2, sequence (P05177 whole entry): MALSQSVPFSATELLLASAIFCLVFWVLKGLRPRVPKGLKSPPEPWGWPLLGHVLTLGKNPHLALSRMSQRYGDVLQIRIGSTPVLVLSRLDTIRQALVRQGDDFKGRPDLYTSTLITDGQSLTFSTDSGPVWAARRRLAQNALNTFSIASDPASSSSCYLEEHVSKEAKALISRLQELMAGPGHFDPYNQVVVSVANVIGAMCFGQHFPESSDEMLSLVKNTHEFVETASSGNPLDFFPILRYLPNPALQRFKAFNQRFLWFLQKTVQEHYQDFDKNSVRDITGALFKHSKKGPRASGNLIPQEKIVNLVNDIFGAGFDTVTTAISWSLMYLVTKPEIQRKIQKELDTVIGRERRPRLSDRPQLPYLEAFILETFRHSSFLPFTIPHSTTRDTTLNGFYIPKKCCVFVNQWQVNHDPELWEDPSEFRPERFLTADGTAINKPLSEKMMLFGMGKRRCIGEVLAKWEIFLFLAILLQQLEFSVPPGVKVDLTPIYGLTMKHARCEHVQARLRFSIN

With “4,4-difluoro-N-[(1S)-3-[exo-3-(3-isopropyl-5-methyl-4H-1,2,4-triazol-4-yl)-8-azabicyclo[3.2.1]octane-8-yl]-1-(pyridin-3-yl)propyl]cyclohexane-1-carboxamide [Compound 6]” the IC50 (CCR5) was 0.0069 µM, the “calcium influx inhibition effect in words, versus positive control compounds” value (CCR5) was “better than the positive control compounds” and the “Tm (° C.)” value (CCR5 protein) was 58.56 °C. The “CC50” value (TZM-bl cells) was >100 µg/mL, the “EC50” value (HIV-1SF162 virus strain [1]; [10]) was 1.51 µg/mL and the “therapeutic index (TI)” value (HIV-1SF162 virus strain [1]; [10]) was 66.23.
In the case of “4-ethyl-N-[(1S)-3-[exo-3-(3-isopropyl-5-methyl-4H-1,2,4-triazol-4-yl)-8-azabicyclo[3.2.1]octane-8-yl]-1-(thiophen-3-yl)propyl]cyclopentane-1-carboxamide [Compound 20]”, the IC50 (CCR5) is reported as 0.00514 µM, the “calcium influx inhibition effect in words, versus positive control compounds” value (CCR5) is reported as “better than the positive control compounds” and the “protein stability effect in words, versus positive control compound” value (CCR5 protein; conclusion from Table 2) is reported as “comparable with the positive control compound”. The “Tm (° C.)” value (CCR5 protein) was 70.27 °C, the “CC50” value (TZM-bl cells) was 69.68 µg/mL and the IC50 (hERG) was 14.4 µM. For the same compound, the “hERG inhibition activity in words, versus positive control compounds” value (hERG) was “better that those of positive control compounds”, the “EC50” value (HIV-1SF162 virus strain [1]; [10]) was 0.00487 µg/mL and the “therapeutic index (TI)” value (HIV-1SF162 virus strain [1]; [10]) was 14308.01.
With `Cc1nnc(C(C)C)n1C1CC2CCC(C1)N2CCC(NC(=O)C1CCC(F)(F)CC1)c1cccs1` (stereo not drawn) [Compound 3, 4,4-difluoro-N-[3-[exo-3-(3-isopropyl-5-methyl-4H-1,2,4-triazol-4-yl)-8-azabicyclo[3.2.1]octane-8-yl]-1-(thiophen-2-yl)propyl]cyclohexane-1-carboxamide] the CC50 at 3 days [2] was > 100 µg/mL, the EC50 (HIV-1SF162 virus strain [3]; [11]) was 0.146 µg/mL (≈ 0.281 µM) and the “therapeutic index (TI)” value (HIV-1SF162 virus strain [3]; PBMC cells infected with HIV-1SF162) was 1874. The EC50 (HIV-1KM018 virus strain) was 0.0157 µg/mL (≈ 0.0301 µM), the EC50 (HIV-1Ba-L virus strain [4]; [11]) was 0.0912 µg/mL (≈ 0.176 µM) and the “therapeutic index (TI)” value (HIV-1Ba-L virus strain [4]; PBMC cells infected with HIV-1Ba-L) was 3328.9. For the same compound, the CC50 at 7 days [5] was 273 µg/mL (≈ 526 µM), the “therapeutic index (TI)” value (HIV-1Ba-L virus strain [6]; HOS-CD4+-CCR5 cells infected with HIV-1Ba-L) was 19495 and the EC50 (HIV-1Ba-L virus strain [6]; Human immunodeficiency virus 1, HOS-CD4-CCR5) was 0.0171 µg/mL (≈ 0.033 µM). For the same compound, the EC50 (HIV-1SF162 virus strain [7]) was 0.0244 µg/mL (≈ 0.047 µM), the CC50 at 3 days [8] was 334 µg/mL (≈ 643 µM) and the EC50 (HIV-1SF162 virus strain [1]; [12]) was 0.0024 µg/mL (≈ 0.00462 µM). For the same compound, the “therapeutic index (TI)” value (HIV-1SF162 virus strain [1]; [10]) was >41666.67 and the “cytotoxicity in vitro and therapeutic index in words, versus positive control compound” value (HIV-1SF162 virus strain [1]; TZM-bl cells infected with HIV-1SF162, conclusion from Table 3) was “better than positive control compound”.
With `Cc1nnc(C(C)C)n1[C@@H]1C[C@H]2CC[C@@H](C1)N2CC[C@H](NC(=O)C1CCC(F)(F)CC1)c1cccc(F)n1` [Compound 34, 4,4-difluoro-N-[(1S)-3-[exo-3-(3-isopropyl-5-methyl-4H-1,2,4-triazol-4-yl)-8-azabicyclo[3.2.1]octane-8-yl]-1-(6-fluoropyridin-2-yl)propyl]cyclohexane-1-carboxamide] the IC50 (CCR5) was 0.143 µM, the “CC50” value (TZM-bl cells) was >200 µg/mL and the “EC50” value (HIV-1SF162 virus strain [1]; [10]) was >40 µg/mL.
For `Cc1nnc(C(C)C)n1[C@@H]1C[C@H]2CC[C@@H](C1)N2CC[C@H](NC(=O)C1CCC(F)(F)CC1)c1ccccc1` [Maraviroc, reference compound], the “Tm (° C.)” value (CCR5 protein) was 72.17 °C, the CC50 [2] was > 200 µg/mL and the IC50 (CYP1A2) was > 25 µM. For the same compound, the IC50 (CYP2C9) was 14.4 µM, the IC50 (CYP2C19) was > 25 µM and the IC50 (CYP2D6) was > 25 µM. For the same compound, the bioavailability as reported [9] was 5% and the EC50 (HIV-1SF162 virus strain [1]; [12]) was 0.00814 µg/mL (≈ 0.0158 µM).
